Measured values published in ChEMBL document CHEMBL3244247, “Beta-Adrenergic blocking agents. 15. 1-Substituted ureidophenoxy-3-amino-2-propanols” (1977).

Experiments:
Felis catus [1] = assay: In vivo inhibition of beta-1 adrenergic receptor in cat assessed as inhibition of isoproterenol-induced tachycardia administered as 30 mins of infusion measured at 30 mins by cardiotachometer; assay type: functional; conditions: 0.5 h
Felis catus [2] = assay: In vivo inhibition of beta-2 adrenergic receptor in cat assessed as inhibition of isoproterenol-induced vasodepressor response at ED50 administered as 30 mins of infusion measured at 30 mins relative to control; assay type: functional

C=CCNC(=O)Nc1ccc(OCC(O)CNC(C)(C)C)c(Cl)c1 (centres undefined)
ED50 (Felis catus [1]): 0.022 mg/kg | inhibition (INH) (Felis catus [2]): 19%

CCNC(=O)Nc1ccc(OCC(O)CNC(C)C)cc1 (centres undefined)
ED50 (Felis catus [1]): 0.427 mg/kg | inhibition (INH) (Felis catus [2]): 0%

CCCCCCNC(=O)Nc1ccc(OCC(O)CNC(C)C)c(C(C)=O)c1 (centres undefined)
ED50 (Felis catus [1]): 0.182 mg/kg | inhibition (INH) (Felis catus [2]): 0%

C=CCNC(=O)Nc1ccc(OCC(O)CNC(C)C)cc1 (centres undefined)
ED50 (Felis catus [1]): 0.262 mg/kg | inhibition (INH) (Felis catus [2]): 70%

CCCCCCNC(=O)Nc1ccc(OCC(O)CNC(C)C)c(C)c1 (centres undefined)
ED50 (Felis catus [1]): 0.189 mg/kg | inhibition (INH) (Felis catus [2]): 19%

CCCNC(=O)Nc1ccc(OCC(O)CNC(C)C)cc1 (centres undefined)
ED50 (Felis catus [1]): 0.147 mg/kg | inhibition (INH) (Felis catus [2]): 0%

CCCCCCNC(=O)Nc1ccc(OCC(O)CNC(C)(C)C)c(C)c1 (centres undefined)
ED50 (Felis catus [1]): 0.03 mg/kg | inhibition (INH) (Felis catus [2]): 50%

CCNC(=O)Nc1ccc(OCC(O)CNC(C)C)c(C)c1 (centres undefined)
ED50 (Felis catus [1]): 0.234 mg/kg | inhibition (INH) (Felis catus [2]): 27%

CCNC(=O)Nc1ccc(OCC(O)CNC(C)C)c(CC)c1 (centres undefined)
ED50 (Felis catus [1]): 0.118 mg/kg | inhibition (INH) (Felis catus [2]): 33%

CC(C)NCC(O)COc1ccc(NC(N)=O)cc1 (centres undefined)
ED50 (Felis catus [1]): 0.631 mg/kg | inhibition (INH) (Felis catus [2]): 20%

CC(C)NCC(O)COc1cccc(NC(N)=O)c1 (centres undefined)
ED50 (Felis catus [1]): 0.028 mg/kg | inhibition (INH) (Felis catus [2]): 58%

C=CCc1cc(NC(=O)NC)ccc1OCC(O)CNC(C)(C)C (centres undefined)
ED50 (Felis catus [1]): 0.056 mg/kg | inhibition (INH) (Felis catus [2]): 74%

CNC(=O)Nc1ccc(OCC(O)CNC(C)(C)C)c(Cl)c1 (centres undefined)
ED50 (Felis catus [1]): 0.025 mg/kg | inhibition (INH) (Felis catus [2]): 52%

CCNC(=O)Nc1ccc(OCC(O)CNC(C)C)c(SC)c1 (centres undefined)
ED50 (Felis catus [1]): 0.198 mg/kg | inhibition (INH) (Felis catus [2]): 32%

CCNC(=O)Nc1ccc(OCC(O)CNC(C)(C)C)c(C)c1 (centres undefined)
ED50 (Felis catus [1]): 0.057 mg/kg | inhibition (INH) (Felis catus [2]): 58%

CCNC(=O)Nc1ccc(OCC(O)CNC(C)COP)c(C)c1 (centres undefined)
ED50 (Felis catus [1]): 0.885 mg/kg | inhibition (INH) (Felis catus [2]): 18%

CNC(=O)Nc1ccc(OCC(O)CNC(C)C)c(C(C)=O)c1 (centres undefined)
ED50 (Felis catus [1]): 0.395 mg/kg | inhibition (INH) (Felis catus [2]): 43%

CCNC(=O)Nc1ccc(OCC(O)CNC(C)(C)C)c(CC)c1 (centres undefined)
ED50 (Felis catus [1]): 0.08 mg/kg | inhibition (INH) (Felis catus [2]): 2%

CC(C)(C)NCC(O)COc1ccc(NC(=O)Nc2ccc(Cl)cc2)cc1 (centres undefined)
ED50 (Felis catus [1]): 0.403 mg/kg | inhibition (INH) (Felis catus [2]): 39%

CCNC(=O)Nc1ccc(OCC(O)CNC(C)(C)C)cc1 (centres undefined)
ED50 (Felis catus [1]): 0.201 mg/kg | inhibition (INH) (Felis catus [2]): 34%

CC(C)NC(=O)Nc1ccc(OCC(O)CNC(C)(C)C)cc1 (centres undefined)
ED50 (Felis catus [1]): 0.095 mg/kg | inhibition (INH) (Felis catus [2]): 24%

CCNC(=O)Nc1ccc(OCC(O)CNC(C)C)c(O)c1 (centres undefined)
ED50 (Felis catus [1]): 0.521 mg/kg | inhibition (INH) (Felis catus [2]): 15%

CNC(=O)Nc1ccc(OCC(O)CNC(C)(C)C)cc1 (centres undefined)
ED50 (Felis catus [1]): 0.074 mg/kg | inhibition (INH) (Felis catus [2]): 0%

CC(C)NCC(O)COc1cccc2ccccc12 (centres undefined) [PROPRANOLOL]
ED50 (Felis catus [1]): 0.062 mg/kg | inhibition (INH) (Felis catus [2]): 85%

C=CCc1cc(NC(=O)NCC)ccc1OCC(O)CNC(C)(C)CO (centres undefined)
ED50 (Felis catus [1]): 0.224 mg/kg | inhibition (INH) (Felis catus [2]): 50%

CCCNC(=O)Nc1ccc(OCC(O)CNC(C)C)c(I)c1 (centres undefined)
ED50 (Felis catus [1]): 0.077 mg/kg | inhibition (INH) (Felis catus [2]): 100%

Cc1cc(NC(=O)NC(C)C)ccc1OCC(O)CNC(C)C (centres undefined)
ED50 (Felis catus [1]): 0.438 mg/kg | inhibition (INH) (Felis catus [2]): 57%

CNC(=O)Nc1ccc(OCC(O)CNC(C)C)c(Cl)c1 (centres undefined)
ED50 (Felis catus [1]): 0.104 mg/kg | inhibition (INH) (Felis catus [2]): 26%

CCCNC(=O)Nc1ccc(OCC(O)CNC(C)(C)C)c(C)c1 (centres undefined)
ED50 (Felis catus [1]): 0.044 mg/kg | inhibition (INH) (Felis catus [2]): 0%

CCCc1cc(NC(=O)NC)ccc1OCC(O)CNC(C)(C)C (centres undefined)
ED50 (Felis catus [1]): 0.093 mg/kg | inhibition (INH) (Felis catus [2]): 7%

CCNC(=O)Nc1ccc(OCC(O)CNC(C)C)c(Br)c1 (centres undefined)
ED50 (Felis catus [1]): 0.069 mg/kg | inhibition (INH) (Felis catus [2]): 19%

CCNC(=O)Nc1ccc(OCC(O)CNC(C)C)c(Cl)c1 (centres undefined)
ED50 (Felis catus [1]): 0.188 mg/kg | inhibition (INH) (Felis catus [2]): 0%

C=CCc1cc(NC(=O)NCC)ccc1OCC(O)CNC(C)(C)C (centres undefined)
ED50 (Felis catus [1]): 0.038 mg/kg | inhibition (INH) (Felis catus [2]): 30%

C=CCNC(=O)Nc1ccc(OCC(O)CNC(C)C)c(Cl)c1 (centres undefined)
ED50 (Felis catus [1]): 0.131 mg/kg | inhibition (INH) (Felis catus [2]): 43%

CCCCCCNC(=O)Nc1ccc(OCC(O)CNC(C)(C)C)cc1 (centres undefined)
ED50 (Felis catus [1]): 0.094 mg/kg | inhibition (INH) (Felis catus [2]): 30%

CCCCNC(=O)Nc1ccc(OCC(O)CNC(C)(C)C)cc1 (centres undefined)
ED50 (Felis catus [1]): 0.048 mg/kg | inhibition (INH) (Felis catus [2]): 0%

CCNC(=O)Nc1ccc(OCC(O)CNC(C)(C)C)c(I)c1 (centres undefined)
ED50 (Felis catus [1]): 0.023 mg/kg | inhibition (INH) (Felis catus [2]): 6%

CNC(=O)Nc1ccc(OCC(O)CNC(C)C)c(C)c1 (centres undefined)
ED50 (Felis catus [1]): 0.17 mg/kg | inhibition (INH) (Felis catus [2]): 32%

CNC(=O)Nc1ccc(OCC(O)CNC(C)C)cc1 (centres undefined)
ED50 (Felis catus [1]): 0.07 mg/kg | inhibition (INH) (Felis catus [2]): 29%

CC(C)NCC(O)COc1ccc(NC(=O)NC2CCCCC2)cc1Cl (centres undefined)
ED50 (Felis catus [1]): 0.252 mg/kg | inhibition (INH) (Felis catus [2]): 14%

CCCCCCNC(=O)Nc1ccc(OCC(O)CNC(C)C)cc1 (centres undefined)
ED50 (Felis catus [1]): 0.274 mg/kg | inhibition (INH) (Felis catus [2]): 0%

CNC(=O)Nc1ccc(OCC(O)CNC(C)C)c(Br)c1 (centres undefined)
ED50 (Felis catus [1]): 0.033 mg/kg | inhibition (INH) (Felis catus [2]): 63%

CCCNC(=O)Nc1ccc(OCC(O)CNC(C)(C)C)cc1 (centres undefined)
ED50 (Felis catus [1]): 0.033 mg/kg | inhibition (INH) (Felis catus [2]): 0%

CCNC(=O)Nc1ccccc1OCC(O)CNC(C)C (centres undefined)
ED50 (Felis catus [1]): 3.24 mg/kg | inhibition (INH) (Felis catus [2]): 103%

CCCCCCCCNC(=O)Nc1ccc(OCC(O)CNC(C)C)c(C)c1 (centres undefined)
ED50 (Felis catus [1]): 0.169 mg/kg | inhibition (INH) (Felis catus [2]): 28%

C=CCc1cc(NC(=O)NCCC)ccc1OCC(O)CNC(C)C (centres undefined)
ED50 (Felis catus [1]): 0.213 mg/kg | inhibition (INH) (Felis catus [2]): 15%

CCCCCCCCNC(=O)Nc1ccc(OCC(O)CNC(C)(C)C)c(C)c1 (centres undefined)
ED50 (Felis catus [1]): 0.08 mg/kg | inhibition (INH) (Felis catus [2]): 11%

C=CCNC(=O)Nc1ccc(OCC(O)CNC(C)(C)C)c(C)c1 (centres undefined)
ED50 (Felis catus [1]): 0.045 mg/kg | inhibition (INH) (Felis catus [2]): 32%

C=CCc1cc(NC(=O)NCC)ccc1OCC(O)CNC1CC1 (centres undefined)
ED50 (Felis catus [1]): 1.14 mg/kg | inhibition (INH) (Felis catus [2]): 37%

CCCCNC(=O)Nc1ccc(OCC(O)CNC(C)C)cc1 (centres undefined)
ED50 (Felis catus [1]): 0.416 mg/kg | inhibition (INH) (Felis catus [2]): 0%

CNC(=O)Nc1ccc(OCC(O)CNC(C)C)c(I)c1 (centres undefined)
ED50 (Felis catus [1]): 0.1 mg/kg | inhibition (INH) (Felis catus [2]): 33%

CCCCNC(=O)Nc1ccc(OCC(O)CNC(C)(C)C)c(C)c1 (centres undefined)
ED50 (Felis catus [1]): 0.012 mg/kg | inhibition (INH) (Felis catus [2]): 11%

CCCNC(=O)Nc1ccc(OCC(O)CNC(C)C)c(C)c1 (centres undefined)
ED50 (Felis catus [1]): 0.061 mg/kg | inhibition (INH) (Felis catus [2]): 59%

CCCCNC(=O)Nc1ccc(OCC(O)CNC(C)(C)C)c(Cl)c1 (centres undefined)
ED50 (Felis catus [1]): 0.008 mg/kg | inhibition (INH) (Felis catus [2]): 0%

Cc1cc(NC(=O)NC(C)C)ccc1OCC(O)CNC(C)(C)C (centres undefined)
ED50 (Felis catus [1]): 0.049 mg/kg | inhibition (INH) (Felis catus [2]): 5%

CCNC(=O)Nc1ccc(OCC(O)CNC(C)C)c(OCC)c1 (centres undefined)
ED50 (Felis catus [1]): 0.295 mg/kg | inhibition (INH) (Felis catus [2]): 41%

CC(C)(C)NCC(O)COc1ccc(NC(N)=O)cc1 (centres undefined)
ED50 (Felis catus [1]): 0.101 mg/kg | inhibition (INH) (Felis catus [2]): 0%

C=CCNC(=O)Nc1ccc(OCC(O)CNC(C)C)c(C)c1 (centres undefined)
ED50 (Felis catus [1]): 0.107 mg/kg | inhibition (INH) (Felis catus [2]): 12%

CC(=O)Nc1ccc(OCC(O)CNC(C)C)cc1 (centres undefined) [PRACTOLOL]
ED50 (Felis catus [1]): 0.167 mg/kg | inhibition (INH) (Felis catus [2]): 8%

C=CCc1cc(NC(=O)NCC)ccc1OCC(O)CNC(C)C (centres undefined)
ED50 (Felis catus [1]): 0.18 mg/kg | inhibition (INH) (Felis catus [2]): 68%

C=CCNC(=O)Nc1ccc(OCC(O)CNC(C)(C)C)cc1 (centres undefined)
ED50 (Felis catus [1]): 0.089 mg/kg | inhibition (INH) (Felis catus [2]): 6%

CCCCNC(=O)Nc1ccc(OCC(O)CNC(C)C)c(C)c1 (centres undefined)
ED50 (Felis catus [1]): 0.046 mg/kg | inhibition (INH) (Felis catus [2]): 0%
